Assay [1] concerns KRAS G12C mutant NCI-H358 cells. Description: Cell proliferation inhibition experiment, 3D spheroid, CellTiter-Glo, NCI-H358. To be noted: NCI-H358 (KRAS G12C mutant) 3D spheroid, 5 days with compound, CellTiter-Glo, read-out: H358 IC50. It counts as cell-based, human. The gist of the method:
(§1)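 Luminescence (CellTiter-Glo, 30 min incubation) was read after 5 days of compound treatment of overnight-formed spheroids of 800 H358 or 400 A549 cells in 2% FBS medium. Inhibition relative to DMSO and blank controls was fitted with a four-parameter model to yield IC50.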
In general terms: ATP-based viability assays read luminescence as a measure of living cells.

Assay [2] concerns the target T1, KRAS G12C (Homo sapiens, UniProt P01116, G12C).
T1 construct: purchased Reactionbiology
Description: KRAS G12C NEA-HTRF experiment (SOS1-catalyzed displacement of GDP by GTP). It counts as biochemical. The text has this:
Raw materials and instruments: KRAS G12C (his-tag) purchased from Reactionbiology; batch number 3496; SOS1 purchased from Reactionbiology; batch number: 3501; GTP purchased from Sigma; article number: G8877; batch number: SLBV1450; Tris-HC1 purchased from Sigma; EDTA purchased from absin; article number: abs42017668; batch number: JE20; NaCl purchased from Sigma; article number: 55886; batch number: SLBW4193; MgCl2 purchased from Shyuanye; article number: R21455; batch number: L07S9G69806; HEPES purchased from Life Technologies; article number: 15630-080; batch number: 2037042; DTT purchased from Thermo Fisher; article number: R0862; batch number: 00608918; Triton X-100 purchased from Sigma; article number: T8787-100 ML; batch number: SLBW7103; DY647-labeled GDP purchased from Jena Bioscience; article number: NU-840-647P1; batch number: BM019-045; Anti-6H1S-Tb purchased from Cisbio; article number: 61H12TLA; batch number: 13A; Bradford Assay Kit purchased from Thermo Fisher; article number: 23246; batch number: UG287474; white opaque 96-well plate purchased from Cisbio; article number: 66PL96025; batch number: N°06; NAP-5 column purchased from GE Healthcare; article number: 17085301; batch number: 16995164; mircoplate reader purchased from PerkinElmer; model: Envision MLD2105-0020; equipment number 1050369. The effect of compounds on SOS1-catalyzed displacement of GDP by GTP on KRAS protein was examined using a homogeneous time-resolved fluorescence (HTRF) method. 30 μM 6×his-tagged KRAS G12C recombinant protein was incubated with 80 μM fluorescent dye DY647-labeled GDP in labeling buffer (1 mM DTT, 7.5 mM EDTA, 25 mM Tris-HCl, 45 mM NaCl) at 20° C. in the dark for 2 hours, purified using NAP-5 column, and then protein quantification was performed with Bradford Assay Kit after purification to determine the concentration of KRAS […] 3.16-fold gradient concentration stock solution of 1000× compound was prepared with DMSO, and diluted 250-fold to 4× compound stock solution with reaction buffer (40 mM HEPES, 10 mM MgCl2, 1 mM DTT, 0.002% Triton X-100). KRAS G12C-GDP/Tb working solution (40 nM KRAS […] Tb) and SOS1/GTP working solution (0.2 μM SOS1, 200 μM GTP) were prepared using the reaction buffer. A white opaque 96-well plate was taken, and 5 μL of 4× compound stock solution and 10 μL of KRAS G12C-GDP/Tb working solution were added to each well. 5 μL of reaction buffer instead of 4x compound stock solution was used in the control well. After incubation in the dark for 15 minutes at 20° C., 5μL of SOS1/GTP working solution was added thereto, and the fluorescence value (excitation wavelength: 320 nm, emission wavelength: 615 nm and 665 nm) was read after incubating at 20° C. in the dark for 2 hours. Another T0 group was set up with 10 μL reaction buffer+10 μL KRAS G12C-GDP/Tb working solution, and the fluorescence value was read directly by the microplate reader. The fluorescence signal ratio RLU=(665 nm signal/615 nm signal)×10^4; and the compound inhibition rate IR (%)=(RLUcompound-RLUcontrol)/(RLUT0-RLUcontrol)×100% were calculated. The IC50 value was calculated by fitting the gradient dilution concentration of compound and the corresponding inhibition rate with the four-parameter method. The NEA activity of the compounds prepared in the above embodiments of the present disclosure was 0.0001 μM to 1 μM; the inhibitory activity of some compounds on KRAS G12C mutant MIA PaCa-2 cells was 0.001 μM to 0.5 μM or 0.001 μM to 0.1 μM.

Assay [3] concerns A549 cells (KRAS G12S mutant). The assay is described as follows: Cell proliferation inhibition experiment, 3D spheroid, CellTiter-Glo, A549. To be noted: Homo sapiens, A549, 120 h, A549 (KRAS G12S mutant) 3D spheroid, 5 days with compound, CellTiter-Glo; read-out: A549 IC50. Type of assay: cell-based, human. The gist of the method:
as §1

Assay [4] deals with KRAS G12C mutant MIA PaCa-2 cells. Description: Cell proliferation inhibition experiment, 3D spheroid, CellTiter-Glo, MIA PaCa-2. Type of assay: cell-based, human. To be noted: Homo sapiens, MIA PaCa-2, 120 h, 3D cell model in 384-well spheroid plate, 5 days, CellTiter-Glo; read-out: MIA-PaCa2 IC50. In outline:
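200 MIA PaCa-2 cells/well grown overnight as 3D spheroids, then exposed to 3.16-fold compound dilutions (0.1% DMSO final) for 5 days. Viability read by CellTiter-Glo luminescence; inhibition calculated against DMSO and medium-only controls, and IC50 fitted by four-parameter model.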

Read-outs that look alike come from different tables or passages of the source.

T1 sequence (P01116 1-188 isoform P01116-2 G12C): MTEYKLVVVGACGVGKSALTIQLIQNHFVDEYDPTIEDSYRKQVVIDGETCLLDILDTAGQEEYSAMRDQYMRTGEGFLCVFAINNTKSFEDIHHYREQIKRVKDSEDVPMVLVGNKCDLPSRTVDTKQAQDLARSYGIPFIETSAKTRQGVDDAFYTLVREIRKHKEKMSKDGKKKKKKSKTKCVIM

As a reminder, the IC50 is the concentration that gives 50% inhibition. On to `C=CC(=O)N1CCN2C(=O)c3c(N4CCN(C)[C@H](C)[C@@H]4C)nc(-c4c(O)cccc4F)c(Cl)c3OC[C@H]2C1` (relative stereo) [Z465, (6aR)-8-acryloyl-4-chloro-3-(2-fluoro-6-hydroxyphenyl)-1-(cis-2,3,4-trimethylpiperazin-1-yl)-12-oxo-6,6a,7,8,9,10-hexahydro-12H-pyrazino[2,1-c]pyrido[3,4-f][1,4]oxazepin-12-one], for which the IC50 in assay [1] was 0.038 µM; in assay [2], 0.275 µM.

As to `C=CC(=O)N1CCN2C(=O)c3c(N4C[C@@H](O)[C@@H]4C)nc(-c4c(O)cccc4F)c(Cl)c3OC[C@H]2C1` (single isomer, unassigned) [Z102-1], the IC50 in assay [1] (Homo sapiens, NCI-H358, 120 h) was 0.0513 µM; in assay [2] it was 0.194 µM.

Consider `C=CC(=O)N1CCN2C(=O)c3c(N4C[C@@H](N(C)CCOC)CC4(C)C)nc(-c4ccccc4F)c(Cl)c3OC[C@H]2C1` (single isomer, unassigned) [Z406-2], for which the half-maximal inhibitory concentration (IC50) came to 0.021 µM in assay [1] (Homo sapiens, NCI-H358, 120 h) and 0.175 µM in assay [2].

Take `C=CC(=O)N1CCN2C(=O)c3c(N4C[C@H](O)CC4(C)C)nc(-c4c(F)ccc(F)c4O)c(F)c3OC[C@H]2C1` (single isomer, unassigned) [Z449-2]: the half-inhibitory concentration (IC50) in assay [2] came to 0.389 µM.

As for `C=CC(=O)N1CCN2C(=O)c3c(N4CCN(C)[C@H](C)[C@@H]4C)nc(-c4ccccc4F)c(Cl)c3OC[C@H]2C1` (single isomer, unassigned) [Z465-2], in assay [2], the half-inhibitory concentration (IC50) was greater than 10 µM.

Regarding `C=CC(=O)N1CCN2C(=O)c3c(N4CCC[C@@]4(C)C(=O)NC)nc(-c4c(F)cccc4OC)c(Cl)c3OC[C@H]2C1` (single isomer, unassigned) [Z466-1], the 50% inhibitory concentration (IC50) was 0.049 µM in assay [1] (Homo sapiens, NCI-H358, 120 h) and 0.764 µM in assay [2].

Regarding `C=CC(=O)N1CCN2C(=O)c3c(N4CCC[C@@]4(C)C(=O)NC)nc(-c4c(F)cccc4OC)c(Cl)c3OC[C@H]2C1` (single isomer, unassigned) [Z466-2], the concentration for half-maximal inhibition (IC50) in assay [1] stood at 0.038 µM; in assay [2] it was 0.383 µM.

On to `C=CC(=O)N1CCN2C(=O)c3c(N4C[C@H](N5CCN(C)CC5)CC4(C)C)nc(-c4ccccc4F)c(F)c3OC[C@H]2C1` (single isomer, unassigned) [Z474-2], for which the IC50 was 0.0633 µM in assay [1] (Homo sapiens, NCI-H358, 120 h) and 0.593 µM in assay [2].

As to `C=CC(=O)N1CCN2C(=O)c3c(O[C@H]4CCN(C)C4)nc(-c4c(O)cccc4F)c(Cl)c3OC[C@H]2C1` [Z65, (6aR)-8-acryloyl-4-chloro-3-(2-fluoro-6-hydroxyphenyl)-1-(((S)-1-methylpyrrolidin-3-yl)oxy)-6,6a,7,8,9,10-hexahydro-12H-pyrazino[2,1-c]pyrido[3,4-f][1,4]oxazepin-12-one], the 50% inhibitory concentration (IC50) in assay [1] (Homo sapiens, NCI-H358, 120 h) is 0.051 µM; in assay [3], greater than 30 µM; in assay [4], 0.038 µM.

`C=CC(=O)N1CCN2C(=O)c3c(N4CCOCC4(C)C)nc(-c4c(O)cccc4F)c(Cl)c3OC[C@H]2C1` [Z70, (6aR)-8-acryloyl-4-chloro-1-(3,3-dimethylmorpholino)-3-(2-fluoro-6-hydroxyphenyl)-6,6a,7,8,9,10-hexahydro-12H-pyrazino[2,1-c]pyrido[3,4-f][1,4]oxazepin-12-one]: the IC50 in assay [1] (Homo sapiens, NCI-H358, 120 h) was 0.025 µM; in assay [3] it was greater than 10 µM; in assay [4] it was 0.052 µM.

For the compound `C=CC(=O)N1CCN2Cc3c(NC(C)(C)C)nc(-c4c(O)cccc4F)c(Cl)c3OC[C@H]2C1` [Z71, 1-((6aR)-1-(tert-butylamino)-4-chloro-3-(2-fluoro-6-hydroxyphenyl)-6a,7,9,10-tetrahydro-12H-pyrazino[2,1-c]pyrido[3,4-f][1,4]oxazepin-8(6H)-yl)prop-2-en-1-one], the IC50 in assay [1] (Homo sapiens, NCI-H358, 120 h) is 0.275 µM; in assay [3], greater than 10 µM; in assay [4], 0.467 µM.

As for `C=CC(=O)N1CCN2C(=O)c3c(-c4ccnn4C(C)C)nc(-c4c(O)cccc4F)c(Cl)c3OC[C@H]2C1` [Z77, (6aR)-8-acryloyl-4-chloro-3-(2-fluoro-6-hydroxyphenyl)-1-(1-isopropyl-1H-pyrazol-5-yl)-6,6a,7,8,9,10-hexahydro-12H-pyrazino[2,1-c]pyrido[3,4-f][1,4]oxazepin-12-one], the IC50 in assay [1] (Homo sapiens, NCI-H358, 120 h) is 0.157 µM; in assay [3] it was greater than 20 µM; in assay [4], 0.365 µM.

For `C=CC(=O)N1CCN2C(=O)c3c(N4CCN(C5COC5)CC4C)nc(-c4c(O)cccc4F)c(Cl)c3OC[C@H]2C1` (stereo partly drawn) [Z239, (6aR)-8-acryloyl-4-chloro-3-(2-fluoro-6-hydroxyphenyl)-1-(2-methyl-4-(oxetan-3-yl)piperazin-1-yl)-6,6a,7,8,9,10-hexahydro-12H-pyrazino[2,1-c]pyrido[3,4-f][1,4]oxazepin-12-one], the half-inhibitory concentration (IC50) in assay [1] (Homo sapiens, NCI-H358, 120 h) was 0.0229 µM; in assay [3], 13.8 µM; in assay [4] it was 0.0416 µM.

`C=CC(=O)N1CCN2C(=O)c3c(N4CCSCC4)nc(-c4c(O)cccc4F)c(Cl)c3OC[C@H]2C1` [Z264, (6aR)-8-acryloyl-4-chloro-3-(2-fluoro-6-hydroxyphenyl)-1-thiomorpholino-6,6a,7,8,9,10-hexahydro-12H-pyrazino[2,1-c]pyrido[3,4-f][1,4]oxazepin-12-one]: the half-maximal inhibitory concentration (IC50) in assay [1] (Homo sapiens, NCI-H358, 120 h) turned out to be 0.085 µM; in assay [3] it was 9.48 µM; in assay [4] it was 0.098 µM.

Regarding `C=CC(=O)N1CCN2C(=O)c3c(N4Cc5nncn5CC4C)nc(-c4c(O)cccc4F)c(Cl)c3OC[C@H]2C1` (stereo partly drawn) [Z277-1, (6aR)-8-acryloyl-4-chloro-3-(2-fluoro-6-hydroxyphenyl)-1-(6-methyl-5,6-dihydro-[1,2,4]triazolo [4,3-a]pyrazin-7(8H)-yl)-6,6a,7,8,9,10-hexahydro-12H-pyrazino[2,1-c]pyrido[3,4-f][1,4]oxazepin-12-one], in assay [2], the IC50 was 0.033 µM.

Turning to `C=CC(=O)N1CCN2C(=O)c3c(N4CC5CCC(=O)N5C[C@@H]4C)nc(-c4c(O)cccc4F)c(Cl)c3OC[C@H]2C1` (stereo partly drawn) [Z330-1, (6aR)-8-acryloyl-4-chloro-3-(2-fluoro-6-hydroxyphenyl)-1-((3S)-3-methyl-6-oxohexahydropyrrolo[1,2-c]pyrazin-2 (1H)-yl)-6,6a,7,8,9,10-hexahydro-12H-pyrazino[2,1-c]pyrido[3,4-f][1,4]oxazepin-12-one], the IC50 in assay [2] is 0.226 µM.

With `C=CC(=O)N1CCN2Cc3c(C(=O)N(C)C(C)C)nc(-c4ccccc4F)c(Cl)c3OC[C@H]2C1` [Z656, (R)-8-acryloyl-4-chloro-3-(2-fluorophenyl)-N-isopropyl-N-methyl-6a,7,8,9,10,12-hexahydro-6H-pyrazino[2,1-c]pyrido[3,4-f][1,4]oxazepine-1-carboxamide], in assay [2], the IC50 is greater than 10 µM.

The values are drawn from patent US20230203060A1 (GENFLEET THERAPEUTICS (SHANGHAI) INC., priority 2020, published 2023).
